How the values were obtained:
[1] = system: HIF1α target genes; experiment: Expression of HIF1α target genes (qRT-PCR) in SIRT3 WT and KO MEFs; assay type: cell-based, mouse; details: DMOG treatment
Method: (B) Fold induction of HIF1αtarget genes in response to hypoxia (n=6) measured by qRT-PCR. The ratio of hypoxic to normoxic gene expression is shown. (C) Fold induction of Glut1 and Hk2 in response to DMOG treatment was measured by qRT-PCR and the ratio of untreated to DMOG-treated gene expression is shown (n=6). […] Significance was assessed by one-way ANOVA. […] Error bars, ±SD.
(§1) A series of experiments were performed comparing the effects of hypoxia and DMOG treatment on SIRT3 WT and KO MEFs.

[2] = system: HIF1α; experiment: HIF1α protein level (immunoblot) in SIRT3 WT and KO MEFs; assay type: cell-based, mouse; details: 1 mM DMOG
Method: Significance was assessed by one-way ANOVA. […] Error bars, ±SD. […] Error bars (except for growth curves), ±SEM. (*) p<0.05; (**) p<0.01.
as §1

[3] = system: SIRT3 KO MEFs; experiment: Growth rates of SIRT3 WT and KO MEFs cultured with NAC; assay type: cell-based, mouse; details: media supplemented with 10 mM NAC
Method: (A) Nuclear extracts from shNS and shSIRT3 HEK293T cells treated with or without 10 μM MG-132 for 1 hour or 1 mM DMOG for 4 hours as indicated were immunoblotted with antibodies specific to hydroxylated HIF1α (HIF—OH) or total HIF1α. (B) Fold induction of HIF1αtarget genes in response to hypoxia (n=6) measured by qRT-PCR. The ratio of hypoxic to normoxic gene expression is shown. (C) Fold induction of Glut1 and Hk2 in response to DMOG treatment was measured by qRT-PCR and the ratio of untreated to DMOG-treated gene expression is shown (n=6). (D) The increase in ROS production with hypoxia was calculated as the fold change in ROS in hypoxic cells relative to normoxic controls. […] Significance was assessed by one-way ANOVA. […] Error bars, ±SD. Protein carbonyls (I) and lipid peroxidation (J) were measured in brown adipose tissue (BAT) of SIRT3 WT and KO mice (n=7). […] Error bars (except for growth curves), ±SEM. […]
To confirm that the metabolite patterns reflected an increase in glycolysis, lactate produced and secreted from SIRT3 WT and KO MEFs (n=5) was measured and normalized to cell number. […] To test whether this apparent increase in aerobic glycolysis supported an increase in biomass and proliferation, growth rates of the MEFs were measured by seeding SIRT3 WT and KO MEFs in six-well plates at a density of 5,000 cells/well and counting the number of cells in triplicate every 24 hours. […]

[4] = system: SIRT3 WT and KO MEFs; experiment: Glucose uptake and lactate secretion in MEFs with oxidation inhibitors; assay type: cell-based, mouse; details: WT cells; 100 nM rotenone or 50 μg/ml etomoxir, 24 hours
Excerpt: (A) Schematic illustrating the metabolites that are increased or decreased in SIRT3 KO MEFs compared to SIRT3 WT MEFs (n=4), p<0.1. Metabolites in parentheses were not measured. PPP, pentose phosphate pathway. The nonoxidative and oxidative arms of the PPP are shown. Levels of glycolytic intermediates (B), TCA cycle intermediates (C), glucose (D), glucose-1-phosphate (E) and ribose-5-phosphate (F). Growth curves of SIRT3 WT and KO MEFs (n=3) cultured in media containing glucose (G) or galactose (H). Error bars, ±SD. (1-N) Glucose uptake and lactate production in SIRT3 WT and KO MEFs (n=6). (I) Relative glucose uptake and (J) lactate production in SIRT3 WT and KO MEFs. (K) Relative glucose uptake and (L) relative lactate production in SIRT3 WT and KO MEFs incubated with or without 100 nM rotenone. (M) Glucose uptake and (N) lactate production in SIRT3 WT and KO MEFs cultured in the presence or absence of 50 μg/ml etomoxir. Cells were treated with drugs for 24 hours before measuring glucose uptake and lactate. All error bars (except growth curves), ±SEM. […]
Metabolites were isolated by methanol extraction from cultured cells and analyzed by liquid chromatography-mass spectrometry (LC-MS). Lactate production was measured using the Lactate Reagent Kit (Trinity Biosciences). […] SDH activity was determined by a colorometric spectrophotometric assay measuring the reduction of 2,6-dichlorophenolindophenol.

[5] = system: CAMA1 cells; experiment: Glucose uptake and lactate production in CAMA1 control or SIRT3 overexpressing cells with rotenone or etomoxir; assay type: cell-based, human; details: 100 nM rotenone or 50 μg/ml etomoxir
Method: (A) Lactate production and (B) glucose consumption of MCF7, T47D and CAMA1 cells stably expressing empty vector or SIRT3 and cultured under hypoxia expressed as a ratio of empty-vector normoxic controls. (C) Relative glucose uptake and (D) relative lactate production in CAMA1 control or SIRT3 overexpressing cells incubated with or without 100 nM rotenone. (E) Glucose uptake and (F) lactate production in CAMA1 cell lines cultured in the presence or absence of 50 μg/ml etomoxir. (G) Immunoblots of CAMA1 cells stably expressing control vector or SIRT3-FLAG cultured at 1% oxygen for the indicated. (H) qRT-PCR of HIF1α target genes in CAMA1 cells cultured at 1% oxygen. (I) Induction of HIF1α target genes in response to hypoxia measured by qRT-PCR in CAMA1 cells. The ratio of normoxic to hypoxic gene expression in each cell line is shown. (J) Induction of HIF1α target genes in response to 1 mM DMOG treatment measured by qRT-PCR in CAMA1 cells. The ratio of untreated to DMOG-treated gene expression in each cell line is shown. Growth curves of CAMA1 cells (n=3) cultured in glucose (K) or galactose (L). Error bars, ±SD. (M) Schematic of the regulation of HIF1α and the Warburg effect by SIRT3. β-2-microglobulin was used as an endogenous control for qRT-PCR. Error bars (except for growth curves), ±SEM. (*) p<0.05; (**) p<0.01.
To examine the contribution of complex I activity or fatty acid oxidation on these phenotypes, glucose uptake and lactate production was measured in the presence of rotenone and etomoxir.
Metabolites were isolated by methanol extraction from cultured cells and analyzed by liquid chromatography-mass spectrometry (LC-MS). Lactate production was measured using the Lactate Reagent Kit (Trinity Biosciences). For immunoblotting, cell lysates and immunoprecipitations were probed with the following antibodies: Total OXPHOS antibody cocktail, complex II antibody cocktail, and OSCP (Mitosciences); Flag (Sigma); acetyl-lysine, LSD1 and hydroxylated HIF1α (Cell Signaling); SUCLA2 and GFP (Santa Cruz); GDH (USBiological); mouse HIF1α (Novus Biologicals) and human HIF 1 (BD Biosciences). The antibody recognizing murine SIRT3 was raised in rabbits against the (C) […] epitope conjugated to KLH at the added cysteine (Covance Research Products). SDH activity was determined by a colorometric spectrophotometric assay measuring the reduction of 2,6-dichlorophenolindophenol.

[6] = system: SDHA; experiment: In vitro deacetylation of SDHA in complex II immunoprecipitates; assay type: biochemical, mouse; details: with NAD, 2 hours at 37° C.

Molecule	glycolysis (glucose uptake and lactate production) [4]	glucose uptake [5]	lactate production [5]	also measured
COC(=O)CNC(=O)C(=O)OC [DMOG, dimethyloxaloylglycine]	–	–	–	expression of HIF1α target genes (Glut1, Hk2) [1]: induce expression of HIF1α target genes; HIF1α stabilization [2]: stabilize HIF1α
CC(=O)N[C@@H](CS)C(=O)O [NAC, N-acetylcysteine]	–	–	–	proliferation (growth rate) [3]: rescued the increased proliferation of SIRT3 KO MEFs
CCOC(=O)[C@@]1(CCCCCCOc2ccc(Cl)cc2)CO1 [etomoxir]	increased	increased	increased	–
C=C(C)[C@H]1Cc2c(ccc3c2O[C@@H]2COc4cc(OC)c(OC)cc4[C@@H]2C3=O)O1 [rotenone]	increased	increased	increased	–
SIRT3-H248Y-His: catalytically inactive SIRT3 (protein, UniProt Q9NTG7 1-399, looked up, variant H248Y, His tag) MAFWGWRAAAALRLWGRVVERVEAGGGVGPFQACGCRLVLGGRDDVSAGLRGSHGARGEPLDPARPLQRPPRPEVPRAFRRQPRAAAPSFFFSSIKGGRRSISFSVGASSVVGSGGSSDKGKLSLQDVAELIRARACQRVVVMVGAGISTPSGIPDFRSPGSGLYSNLQQYDLPYPEAIFELPFFFHNPKPFFTLAKELYPGNYKPNVTHYFLRLLHDKGLLLRLYTQNIDGLERVSGIPASKLVEAYGTFASATCTVCQRPFPGEDIRADVMADRVPRCPVCTGVVKPDIVFFGEPLPQRFLLHVVDFPMADLLLILGTSLEVEPFASLTEAVRSSVPRLLINRDLVGPLAWHPRSRDVAQLGDVVHGVESLVELLGWTEEMRDLVQRETGKLDGPDK	–	–	–	deacetylation of SDHA [6]: not

Source: patent US20130171125A1, “Methods for the Regulation of Cellular Metabolism Through the Modulation of SIRT3 Activity” (National Institutes of Health (NIH), U.S. Dept. of Health …, priority 2010, published 2013)
